Test results: patent US20170190671A1, “BIS(ARYL)CATECHOL DERIVATIVES AS HERBICIDES” (E I DU PONT DE NEMOURS AND COMPANY, priority 2014, published 2017)

Legend:
Type in all cases: in vivo
[1] = system: bluegrass (annual bluegrass, Poa annua); test: Test D postemergence; conditions: scale 0 to 100
Method in brief: (§1)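 Plants were kept in a controlled environment for 14 to 21 days after spraying, then compared with untreated controls. Scores run from 0, no effect, to 100, complete control; preemergence pots used silt loam and postemergence pots a peat-based medium.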

[2] = system: wild buckwheat (Polygonum convolvulus); test: Test D postemergence; conditions: scale 0 to 100
Method in brief: as §1

[3] = system: downy bromegrass (Bromus tectorum); test: Test D postemergence; conditions: scale 0 to 100
Method in brief: as §1

[4] = system: chickweed (common chickweed, Stellaria media); test: Test D postemergence; conditions: scale 0 to 100
Method in brief: as §1

[5] = system: canarygrass (Phalaris minor); test: Test D postemergence; conditions: scale 0 to 100
Method in brief: as §1

[6] = system: deadnettle (henbit deadnettle, Lamium amplexicaule); test: Test D postemergence; conditions: scale 0 to 100
Method in brief: as §1

[7] = system: blackgrass (Alopecurus myosuroides); test: Test D postemergence; conditions: scale 0 to 100
Method in brief: as §1

[8] = system: windgrass (Apera spica-venti); test: Test D postemergence; conditions: scale 0 to 100
Method in brief: as §1

[9] = system: lambsquarters (Chenopodium album); test: Test D postemergence; conditions: scale 0 to 100
Method in brief: as §1

[10] = system: pigweed (Amaranthus retroflexus); test: Test D postemergence; conditions: scale 0 to 100
Method in brief: as §1

[11] = system: Italian ryegrass (Lolium multiflorum); test: Test D postemergence; conditions: scale 0 to 100
Method in brief: as §1

[12] = system: spring wheat (Triticum aestivum); test: Test D postemergence; conditions: scale 0 to 100
Method in brief: as §1

[13] = system: winter barley (Hordeum vulgare); test: Test D postemergence; conditions: scale 0 to 100
Method in brief: as §1

[14] = system: galium (catchweed bedstraw, Galium aparine); test: Test D postemergence; conditions: scale 0 to 100
Method in brief: as §1

[15] = system: field violet (Viola arvensis); test: Test D postemergence; conditions: scale 0 to 100
Method in brief: as §1

[16] = system: green foxtail (Setaria viridis); test: Test D postemergence; conditions: scale 0 to 100
Method in brief: as §1

[17] = system: velvetleaf (Abutilon theophrasti); test: Test A postemergence; conditions: 0 to 100 scale
Method in brief: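 Pre- and postemergence greenhouse screen. Soil: loam + sand. Spray carrier: solvent mixture, non-phytotoxic, with surfactant. Post timing at 1–2 leaves, height 2–10 cm. Readout: visual injury on a 0–100 scale roughly 10 days after application, untreated plants as reference.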

N#Cc1cccc(Oc2ncc(Cl)cn2)c1Oc1ncc(Cl)cn1 [Compound 3, 2,3-bis[(5-chloro-2-pyrimidinyl)oxy]benzonitrile]
0: Plant response rating, Ryegrass, Italian ([11]; 16 g ai/ha) | Plant response rating, Wheat, Spring ([12]; 16 g ai/ha) | Plant response rating, Wheat, Spring ([12]; 31 g ai/ha) | Plant response rating, Barley, Winter ([13]; 16 g ai/ha)
75: Plant response rating, Galium ([14]; 16 g ai/ha)
20: Plant response rating, Bluegrass ([1]; 31 g ai/ha) | Plant response rating, Bromegrass, Downy ([3]; 31 g ai/ha) | Plant response rating, Canarygrass ([5]; 125 g ai/ha) | Plant response rating, Blackgrass ([7]; 125 g ai/ha) | Plant response rating, Foxtail, Green ([16]; 62 g ai/ha)
40: Plant response rating, Foxtail, Green ([16]; 125 g ai/ha)
60: Plant response rating, Deadnettle ([6]; 16 g ai/ha)
90: Plant response rating, Buckwheat, Wild ([2]; 31 g ai/ha) | Plant response rating, Field Violet ([15]; 16 g ai/ha)
10: Plant response rating, Bromegrass, Downy ([3]; 16 g ai/ha) | Plant response rating, Canarygrass ([5]; 31 g ai/ha) | Plant response rating, Blackgrass ([7]; 31 g ai/ha) | Plant response rating, Windgrass ([8]; 16 g ai/ha) | Plant response rating, Ryegrass, Italian ([11]; 31 g ai/ha) | Plant response rating, Ryegrass, Italian ([11]; 62 g ai/ha) | Plant response rating, Barley, Winter ([13]; 62 g ai/ha) | Plant response rating, Foxtail, Green ([16]; 16 g ai/ha)
30: Plant response rating, Bluegrass ([1]; 125 g ai/ha) | Plant response rating, Windgrass ([8]; 125 g ai/ha)
50: Plant response rating, Chickweed ([4]; 16 g ai/ha)
25: Plant response rating, Bluegrass ([1]; 62 g ai/ha) | Plant response rating, Bromegrass, Downy ([3]; 62 g ai/ha) | Plant response rating, Bromegrass, Downy ([3]; 125 g ai/ha) | Plant response rating, Windgrass ([8]; 62 g ai/ha)
100: Plant response rating, Buckwheat, Wild ([2]; 125 g ai/ha) | Plant response rating, Chickweed ([4]; 125 g ai/ha) | Plant response rating, Lambsquarters ([9]; 62 g ai/ha) | Plant response rating, Lambsquarters ([9]; 125 g ai/ha) | Plant response rating, Pigweed ([10]; 16 g ai/ha) | Plant response rating, Pigweed ([10]; 31 g ai/ha) | Plant response rating, Pigweed ([10]; 62 g ai/ha) | Plant response rating, Pigweed ([10]; 125 g ai/ha) | Plant response rating, Galium ([14]; 62 g ai/ha) | Plant response rating, Galium ([14]; 125 g ai/ha) | Plant response rating, Field Violet ([15]; 31 g ai/ha) | Plant response rating, Field Violet ([15]; 62 g ai/ha) | Plant response rating, Field Violet ([15]; 125 g ai/ha) | Plant response rating, Velvetleaf ([17]; 125 g ai/ha) | Plant response rating, Velvetleaf ([17]; 500 g ai/ha)
95: Plant response rating, Buckwheat, Wild ([2]; 62 g ai/ha) | Plant response rating, Galium ([14]; 31 g ai/ha)
70: Plant response rating, Chickweed ([4]; 31 g ai/ha) | Plant response rating, Deadnettle ([6]; 31 g ai/ha) | Plant response rating, Deadnettle ([6]; 62 g ai/ha) | Plant response rating, Lambsquarters ([9]; 16 g ai/ha)
15: Plant response rating, Bluegrass ([1]; 16 g ai/ha) | Plant response rating, Canarygrass ([5]; 62 g ai/ha) | Plant response rating, Blackgrass ([7]; 62 g ai/ha) | Plant response rating, Windgrass ([8]; 31 g ai/ha) | Plant response rating, Ryegrass, Italian ([11]; 125 g ai/ha) | Plant response rating, Wheat, Spring ([12]; 125 g ai/ha) | Plant response rating, Barley, Winter ([13]; 125 g ai/ha) | Plant response rating, Foxtail, Green ([16]; 31 g ai/ha)
5: Plant response rating, Canarygrass ([5]; 16 g ai/ha) | Plant response rating, Blackgrass ([7]; 16 g ai/ha) | Plant response rating, Wheat, Spring ([12]; 62 g ai/ha) | Plant response rating, Barley, Winter ([13]; 31 g ai/ha)
85: Plant response rating, Buckwheat, Wild ([2]; 16 g ai/ha)
80: Plant response rating, Chickweed ([4]; 62 g ai/ha) | Plant response rating, Deadnettle ([6]; 125 g ai/ha) | Plant response rating, Lambsquarters ([9]; 31 g ai/ha)
